In brackets after ≈: the same amount, converted by molar mass.
Columns and labels:
[1] = tested on: A. baumannii mutant AB522; test: MIC against Tn-seq transposon mutant AB522; format: cell-based; conditions: Acinetobacter baumannii
Description: (§1) During individual MIC screening, two mutants, AB522 and AB1310, were identified due to their increased sensitivity to the three macrolide antibiotics and vancomycin when compared to AB 5075 (Table 17).
(§2) Day Cultures (6 h) were subcultured to 5×10^5 CFU/mL in cation adjusted Mueller-Hinton broth (CAMHB). Aliquots (1 mL) were placed in culture tubes, and compound was added from 100 mM stock solutions, such that the compound concentration equaled the highest concentration tested (200 μM or 64 μg/mL). Samples were then aliquoted (200 μL) into the first row of wells of a 96-well plate, with all remaining wells being filled with 100 μL of initial bacterial subculture. The wells in row one were mixed five times before 100 μL was transferred to the following row (row two). Row two was then mixed five times, and 100 μL was transferred to row three. This processed was repeated until the final row had been mixed. This process provided a serial dilution of the compound. Plates were covered with Glad Press n'Seal and were incubated under stationary conditions at 37° C. for 16 hours. MIC values were recorded as the lowest concentration at which no bacterial growth was observed.

[2] = tested on: A. baumannii mutant AB1310; test: MIC against Tn-seq transposon mutant AB1310; format: cell-based; conditions: Acinetobacter baumannii
Description: as §1, §2

[3] = tested on: AB5075; test: G. mellonella model infected with AB5075, survival; format: in vivo, Galleria mellonella; conditions: clarithromycin alone at 25 mg/kg
Description: Galleria mellonella larvae (Speedy Worm, Alexandria, Minn.) were used within ten days of shipment from the vendor. After reception of worms, larvae were kept in the dark at room temperature for at least 24 h before infection. Larvae weighing between 200 to 300 mg were used in the survival assay. Using a 10 μL glass syringe (Hamilton, Reno, Nev.) fitted with a 30 G needle (Exel International, St. Petersburg, Fl), 5 μL of the desired compound and concentration were injected into the last left proleg. After 2.5 h, a second 5 μL injection containing 6×10^5 CFU of Acinetobacter baumannii 5075 was injected into the second to last left proleg. Injected worms were left at room temperature in the dark while being assessed at 24 h intervals over 6 days. […] Experiment was repeated 7 times using 10 larvae per experimental group.

[4] = tested on: A. baumannii strain 3785; test: Potentiation of clarithromycin and vancomycin against clinical isolate; format: cell-based, Acinetobacter baumannii; conditions: antibiotic alone
Description: (§3) As previously stated, A. baumannii 5075 was chosen for these studies due to its virulence and multidrug resistance, but to further analyze the activity of our lead compounds, 23 A. baumannii clinical isolates obtained from Walter Reed Army Institute of Research (WRAIR) were tested.
(§4) Day Cultures (6 h) were subcultured to 5×10^5 CFU/mL in cation adjusted Mueller-Hinton broth (CAMHB). […] One milliliter of the resulting solution was aliquoted into a separate culture tube and was dosed with antibiotic so that the resulting concentration was the highest desirable concentration to be tested. Bacteria treated with antibiotic alone were used as a control. Row one of a 96-well plate was filled with 200 μL of the antibiotic/compound solution, and the remaining rows were filled with 100 μL of the remaining 4 mL bacterial subculture. The wells in row one were mixed five times before 100 μL was transferred to the following row (row two). Row two was then mixed five times, and 100 μL was transferred to row three. This process was repeated until the second to last row had been reached. The last row is left unexposed to antibiotic in order to serve as a negative control. The antibiotic only treated bacteria was plated by aliquoting 200 μL of the treated bacteria into row one and filling the remaining rows with untreated bacteria from the original bacteria subculture. The rows were mixed in the same way as described above. Plates were covered with Glad Press n'Seal and were incubated under stationary conditions at 37° C. for 16 hours. MIC values were recorded as the lowest concentration at which no bacterial growth was observed. Fold reductions were determined by comparison of the compound treated wells with the antibiotic only treated control wells.

[5] = tested on: A. baumannii strain 3806; test: as above; format: cell-based, Acinetobacter baumannii; conditions: antibiotic alone
Description: as §3, §4

[6] = tested on: A. baumannii strain 4025; test: as above; format: cell-based, Acinetobacter baumannii; conditions: antibiotic alone
Description: as §3, §4

[7] = tested on: A. baumannii strain 4026; test: as above; format: cell-based, Acinetobacter baumannii; conditions: antibiotic alone
Description: as §3, §4

[8] = tested on: A. baumannii strain 4027; test: as above; format: cell-based, Acinetobacter baumannii; conditions: antibiotic alone
Description: as §3, §4

[9] = tested on: A. baumannii strain 4498; test: as above; format: cell-based, Acinetobacter baumannii; conditions: antibiotic alone
Description: as §3, §4

[10] = tested on: A. baumannii strain 4857; test: as above; format: cell-based, Acinetobacter baumannii; conditions: antibiotic alone
Description: as §3, §4

[11] = tested on: A. baumannii strain 5197; test: as above; format: cell-based, Acinetobacter baumannii; conditions: antibiotic alone
Description: as §3, §4

[12] = tested on: A. baumannii strain 5711; test: as above; format: cell-based, Acinetobacter baumannii; conditions: antibiotic alone
Description: as §3, §4

[13] = tested on: A. baumannii strain 8967; test: as above; format: cell-based, Acinetobacter baumannii; conditions: antibiotic alone
Description: as §3, §4

[14] = tested on: A. baumannii strain 5075 (AB5075); test: Broth microdilution MIC determination of compound alone; format: cell-based; conditions: Acinetobacter baumannii; compound alone; AB5075; read-out: MIC
Description: Our initial screening began by testing a diverse selection of 2-AI compounds from our internal library for their minimal inhibitory concentrations (MIC) against A. baumannii isolate 5075.
as §2

[15] = tested on: A. baumannii strain 5075 (AB5075); test: Macrolide sensitization / antibiotic resensitization: antibiotic MIC in presence of compound (broth microdilution); format: cell-based, Acinetobacter baumannii; conditions: compound at 30 μM vs antibiotic alone; AB5075
Description: A. baumannii 5075 was plated on LB agar, then grown in CAMHB for 6-8 h and this culture was used to inoculate fresh CAMHB (5×10^5 CFU/mL). The resulting suspension was aliquoted (5 mL) into culture tubes and compound, from 100 mM DMSO stock, was added. One aliquot was not treated (control). 1 mL of each sample was transferred to a new culture tube and antibiotic was added. Rows 2-12 of a 96-well microtiter plate were filled with 100 μL/well from the remaining 4 mL bacterial subcultures, allowing the concentration of compound to be kept uniform throughout the antibiotic dilution procedure. Samples containing antibiotic were aliquoted (200 μL) into the corresponding first row wells of the microtiter plate. Row 1 wells were mixed 6 to 8 times then 100 μL was withdrawn and transferred to row 2. Row 2 wells were mixed 6 to 8 times, followed by a 100 μL transfer from row 2 to row 3. This procedure was repeated to serially dilute the rest of the rows of the microtiter plate, with the exception of the final row, to which no antibiotic was added (to check for growth of bacteria in the presence of compound alone). The microtiter plate was then covered, placed in a covered damp plastic container and incubated under stationary conditions at 37° C. After 16-18 hrs minimum inhibitory concentration (MIC) values were recorded as the lowest concentration of antibiotic at which there was no visible growth of bacteria. Experiments were carried out in duplicate each time and repeated at least twice.
The difference in antibiotic MIC between the control (no compound) sample, and the samples containing each compound was recorded as the fold-reduction.
as §4

[16] = tested on: AB5075; test: Checkerboard assay for FIC determination with colistin; format: cell-based, Acinetobacter baumannii; conditions: chequerboard, ΣFIC≥2 considered antagonistic
Description: Against AB5075, we determined that the ΣFIC with compound 1 to be 17 and the ΣFIC with compound 10 to be 33. These ΣFIC values indicate that both compounds are highly antagonistic with colistin as a ΣFIC≥2 is considered antagonistic.
Day Cultures (6 h) of A. baumannii 5075 were subcultured to 5×10^5 CFU/mL in cation adjusted Mueller-Hinton broth (CAMHB). 100 μL of the inoculated media was distributed into all wells of a 96-well plate except well 1A. Inoculated CAMHB (200 μL) containing compound (twice the highest concentration tested) was added to well 1A, and 100 μL of the same sample was added to wells 2A-12A. The contents in column A were mixed five times before 100 μL was transferred to column B. The contents of column B were mixed 5 times before transferring to column C. This process was repeated with the remainder of the columns up to column G. Column H was not mixed to allow determination of the antibiotic MIC alone. […] Row 12 was not mixed so that the MIC of the compound alone could be determined. The MICs of both compound and antibiotic alone were recorded, as well as the wells containing the combination. The ΣFICs were calculated as follows: ΣFIC=FIC (Compound)+FIC (antibiotic), where FIC (compound) is the MIC of the compound in the combination/MIC of the compound alone and the FIC (antibiotic) is the MIC of the antibiotic in combination/the MIC of the antibiotic alone. […]

MIC [14] [µM] | Compound | MIC [1] [µg/mL] | MIC [2] [µg/mL] | survival after 6 days [3] [%] | MIC (μg/mL) of the antibiotic [4] [µg/mL] | MIC (μg/mL) of the antibiotic [5] [µg/mL] | MIC (μg/mL) of the antibiotic [6] [µg/mL] | MIC (μg/mL) of the antibiotic [7] [µg/mL] | MIC (μg/mL) of the antibiotic [8] [µg/mL] | MIC (μg/mL) of the antibiotic [9] [µg/mL] | MIC (μg/mL) of the antibiotic [10] [µg/mL] | MIC (μg/mL) of the antibiotic [11] [µg/mL] | MIC (μg/mL) of the antibiotic [12] [µg/mL] | MIC (μg/mL) of the antibiotic [13] [µg/mL] | Fold reduction (erythromycin MIC) [15] [fold] | ΣFIC with colistin [16]
– | CC[C@H]1OC(=O)[C@H](C)[C@@H](O[C@H]2C[C@@](C)(OC)[C@@H](O)[C@H](C)O2)[C@H](C)[C@@H](O[C@@H]2O[C@H](C)C[C@H](N(C)C)[C@H]2O)[C@](C)(OC)C[C@@H](C)C(=O)[C@H](C)[C@@H](O)[C@]1(C)O [Clarithromycin, reference compound] | 2 (≈ 2.67 µM) | 2 (≈ 2.67 µM) | 1 | 64 | 16 | 64 | 64 | 64 | 64 | 64 | 64 | 64 | 16 | – | –
100 (≈ 38.2 µg/mL) | Nc1nc(-c2ccc(NC(=O)c3c(Cl)cc(Cl)cc3Cl)cc2)c[nH]1 [Compound 10] | – | – | – | – | – | – | – | – | – | – | – | – | – | 8 | 33

Source: US20210283107A1, “Methods to Expand the Spectrum of Gram-Positive Antibiotics” (NORTH CAROLINA STATE UNIVERSITY, priority 2016, published 2021)
